Assay results published in patent US4213984A, “11-(Piperazino-acetyl)-5,11-di hydro-6H-pyrido[2,3-b][1,4]benzodiazepin-6-ones and salts thereof” (Boehringer Ingelheim GmbH, priority 1977, dated 1980).

How the values were obtained:
stress ulcers in rats = assay: inhibiting effect on the formation of stress ulcers in rats (Takagi and Okabe), peroral; assay type: in vivo; details: po, rat; for inhibition in vivo at 12.5 mg/kg: 12.5 mgm/kg, read-out: Ulcer inhibition in % (rat) after peroral administration of 12.5 mgm/kg; for inhibition in vivo at 25 mg/kg: 25 mgm/kg, read-out: Ulcer inhibition in % (rat) after peroral administration of 25 mgm/kg; for inhibition in vivo at 50 mg/kg: 50 mgm/kg, read-out: Ulcer inhibition in % (rat) after peroral administration of 50 mgm/kg
Experimental: (§1) The compounds were examined with regard to their inhibiting effect on the formation of stress ulcers in rats and their spasmolytic effect, related to atropine, with consideration of their acute toxicity.
The inhibiting effect on the formation of stress ulcers in rats was determined according to the method of K. Takagi and S. Okabe, Jap.Journ.Pharmac. 18,pp. 9 to 18 (1968). Fed female rats with a body weight between 220 and 260 gm were individually put into small wire cages and were subsequently kept vertically submerged in a water bath which was kept constant at a temperature of 23° C. for 16 hours, so that only the heads and the breastbones of the animals were above the water surface. The test compounds were administered perorally 5 to 10 minutes before. With each substance five animals were treated. 1 ml of a 0.9% physiological sodium chloride solution or 1 ml of a 1% tylose solution was administered to the control animals in the same way. After 18 hours the animals were killed by an overdose of ethyl chloride, the stomachs were excised, cut along the big curvature and spread on a cork plate. The evaluation was carried out according to the methods of Marazzi-Uberti and Turba, Med. Exp. 4, pp. 284 to 292 (1961), and Takagi and Okabe (supra)

guinea pig colon = assay: spasmolytic effect in vitro on the guinea pig colon, acetylcholine-induced spasms, compared with atropinesulfate; details: acetylcholine spasm, relative to Atropine = 1
Experimental: as §1
The spasmolytic effect was determined in vitro on the guinea pig colon, using the experimental arrangement according to R. Magnus, Pflugers Archiv, 102, pp. 123 (1904). Acetylcholine was taken to induce spasms, the substance for comparison was atropinesulfate. The spasticum was administered one minute before the administration of the spasmolytic substance, and the spasmolytic was allowed to take effect for 1 minute.

[1] = acute toxicity after peroral administration to fasted white mice; assay type: in vivo; details: in vivo, po, mouse, observation period 14 days, read-out: LD50 peroral mgm/kg mouse
Experimental: (§2) The acute toxicity was determined after peroral administration of the test substance to fasted white mice with a body weight of 18 to 20 gm. The observation period was 14 days. For each dosage a group of six mice was used.

white mice = assay: as above; assay type: in vivo; details: mouse, six mice per dosage, at the LD50 dose
Experimental: as §2

Compound | inhibition in vivo at 12.5 mg/kg (stress ulcers in rats) [%] | inhibition in vivo at 25 mg/kg (stress ulcers in rats) [%] | inhibition in vivo at 50 mg/kg (stress ulcers in rats) [%] | Spasmolysis (acetylcholine) in respect to Atropine = 1 (guinea pig colon) | LD50 at 336 h [1] [mg/kg] | number of animals that died (white mice)
O=C1Nc2cccnc2N(C(=O)CN2CCN(Cc3ccc4c(c3)OCO4)CC2)c2ccccc21 [E, 5,11-Dihydro-11-{[4-(3,4-methylenedioxy-benzyl)-1-piperazinyl]-acetyl}-6H-pyrido[2,3-b][1,4]benzodiazepin-6-one] | 37 | 73 | 95 | 1/78 | > 3000 | +++ (means, 2 of 6 animals died)
CC(C)=CCN1CCN(CC(=O)N2c3ccccc3C(=O)Nc3cccnc32)CC1.Cl.Cl [B, 5,11-Dihydro-11-{[4-(3-methyl-but-2-enyl)-1-piperazinyl]acetyl}-6H-pyrido[2,3-b][1,4]benzodiazepin-6-one dihydrochloride] | 52 | 63 | 84 | 1/200 | > 1500 | + (means, 0 of 6 animals died)
O=C1Nc2cccnc2N(C(=O)CN2CCN(CC34CC5CC(CC(C5)C3)C4)CC2)c2ccccc21 [D, 11-{[4-(1-Adamantyl-methyl)-1-piperazinyl]acetyl}-5,11-dihydro-6-H-pyrido[2,3-b][1,4]benzodiazepin-6-one] | 26 | 47 | 79 | 1/86 | > 3000 | + (means, 0 of 6 animals died)
CN1C(=O)c2ccccc2N(C(=O)CN2CCN(Cc3ccc4c(c3)OCO4)CC2)c2ncccc21 [G, 5,11-Dihydro-5-methyl-11-{[4-(3,4methylenedioxy-benzyl)-1-piperazinyl]acetyl}-6H-pyrido[2,3-b][1,4]benzodiazepin-6-one] | 21 | 58 | 90 | 1/290 | > 1500 | +++ (means, 2 of 6 animals died)
C=C(C)CN1CCN(CC(=O)N2c3ccccc3C(=O)Nc3cccnc32)CC1 [A, 5,11-Dihydro-11-{[4-(2-methyl-allyl)-1-piperazinyl]acetyl}-6H-pyrido[2,3-b][1,4]benzodiazepin-6-one] | 32 | 52 | 90 | 1/330 | > 3000 | + (means, 0 of 6 animals died)
O=C1Nc2cccnc2N(C(=O)CN2CCN(CC=Cc3ccccc3)CC2)c2ccccc21 [H, 11-[(4-Cinnamyl-1-piperazinyl)acetyl]-5,11-dihydro-6H-pyrido-[2,3-b][1,4]benzodiazepin-6-one] | 53 | 69 | 95 | 1/700 | ~3000 | ++++ (means, 4 of 6 animals died)
CC(C)(C)CN1CCN(CC(=O)N2c3ccccc3C(=O)Nc3cccnc32)CC1 [C, 5,11-Dihydro-11-{[4-(2,2-dimethyl-propyl)-1-piperazinyl]acetyl}-6H-pyrido[2,3-b][1,4]benzodiazepin-6-one] | 39 | 61 | 95 | 1/70 | > 1500 | + (means, 0 of 6 animals died)
CC1CN(C)CCN1CC(=O)N1c2ccccc2C(=O)Nc2cccnc21.Cl (stereo not drawn) [F, 5,11-Dihydro-11-[(2,4-dimethyl-1-piperazinyl)acetyl]-6H-pyrido-[2,3-b][1,4]benzodiazepin-6-one-hydrochloride] | 84 | 90 | 95 | 1/130 | > 3000 | ++ (means, 1 of 6 animals died)
